# Data published in PMC8580050, “Improvement of the antimicrobial potency, pharmacokinetic and pharmacodynamic properties of albicidin by incorporation of nitrogen atoms” (Chemical Science, 2021).
# Like-named read-outs stand apart in the source and are kept apart here.
# Experiments:
# E. coli DSM 1116 = experiment: MIC determination (broth microdilution); format: cell-based, Escherichia coli; conditions: Escherichia coli, DSM1116
# Procedure: (§1) 1.1.1 In vitro experiments
# (§2) Determination of Minimal inhibitory concentrations (MIC)
# (§3) Approved Standard M07-A9.1
# (§4) CFU mL-1. […] Albicidin and […]
# (§5) and serially diluted in DMSO (100%). […]
# (§6) in 0.1 N HCL, respectively.
# (§7) One row of each well plate served as a […]
# (§8) sterility control (only MHB II-media). […]
# (§9) adding 5 µL DMSO to several wells. […]
# (§10) for growth inhibition by naked eye.
# (§11) Microorganisms and Cell Cultures (DSMZ): […]
# S. Typhimurium TA100 = experiment: MIC determination (broth microdilution); format: cell-based, Salmonella typhimurium; conditions: Salmonella enterica; S. Typhimurium TA100; read-out: MIC
# Procedure: as §1, §2, §3, §4, §5, §6, §7, §8, §9, §10, §11
# B. subtilis DSM 10 = experiment: MIC determination (broth microdilution); format: cell-based; conditions: Bacillus subtilis, DSM10; B. subtilis DSM 10; read-out: MIC
# Procedure: as §1, §2, §3, §4, §5, §6, §7, §8, §9, §10, §11
# E. coli BW25113 = experiment: MIC determination (broth microdilution); format: cell-based; conditions: Escherichia coli
# Procedure: as §1, §2, §3, §4, §5, §6, §7, §8, §9, §10, §11
# M. luteus DSM1790 = experiment: MIC determination (broth microdilution); format: cell-based, Micrococcus luteus; conditions: Micrococcus luteus; M. luteus DSM1790; read-out: MIC
# Procedure: as §1, §2, §3, §4, §5, §6, §7, §8, §9, §10, §11
# M. phlei DSM 750 = experiment: MIC determination (broth microdilution); format: cell-based, Mycobacterium phlei; conditions: Mycolicibacterium phlei, DSM750; M. phlei DSM 750; read-out: MIC
# Procedure: as §1, §2, §3, §4, §5, §6, §7, §8, §9, §10
# [1] = test system: E. coli DSM 1116 + 50% Human Serum; experiment: MIC determination in presence of 50% human serum; format: cell-based; conditions: Escherichia coli, DSM1116; E. coli DSM 1116 + 50% Human Serum; read-out: MIC
# From the text: This investigation was completed by assessment of the antibacterial activity in presence of human plasma (50%) (Table 1), since high plasma protein binding can severely impair antibacterial activity and thus efficacy.
# as §1, §2, §3, §4, §5, §6, §7, §8, §9, §10, §11
# E. coli DNA gyrase = biological target: T1, E. coli DNA gyrase (Escherichia coli, UniProt P0AES4+P0AES6); experiment: E. coli gyrase supercoiling inhibition assay; format: biochemical; set-up: key: ↑: for stronger inhibition; ≈: for equal inhibition; ↓: for diminished inhibition compared to albicidin 1; conditions: constant concentration of 45 nM, compared to albicidin 1
# T1 construct: purchased inspiralis Limited, Norwich, UK
# Procedure: Escherichia coli Gyrase Supercoiling Inhibition Assay
# loaded on an agarose gel.
# 2-15. […] Addition of DNA
# All derivatives were tested at a concentration of […]
# Gram-negative strains = experiment: MIC, primary panel; format: cell-based; conditions: Salmonella enterica, TYPHIMURIUM
# Procedure: as §1, §2, §3, §4, §5, §6, §7, §8, §9, §10
# (§12) Microorganisms and Cell Cultures (DSMZ):
# Mycobacterium phlei DSM 750
# Salmonella typhimurium TA100 was kindly provided by Prof. Dr. Vera Meyer (Technische Universität […]
# Brötz-Oesterheldt (Tübingen, Germany)/ Prof. Dr. Heisig (Hamburg, Germany)2 Escherichia coli WT (GK571)
# Escherichia coli WT-3-1 (GK796) [gyrA (S83L, D87G)]
# Escherichia coli MI (GK572) [gyrA (S83L)] […]
# or by Prof. Dr. Werner (Robert-Koch-Institut, Wernigerode, Germany): […]
# Gram-positive strains = experiment: MIC, primary panel; format: cell-based
# Procedure: as §1, §2, §3, §4, §5, §6, §7, §8, §9, §10, §12
# Mycobacterium phlei DSM 750 […]
# Dr. Werner (Robert-Koch-Institut, Wernigerode, Germany): […]
# [2] = Cell proliferation assay (HepG2 cells); conditions: human
# Procedure: (§13) Cell proliferation assay (HepG2 cells)
# (§14) The assay was performed by the company Eurofins (Taiwan). Cytotoxicity was representatively
# (§15) according to a protocol by Ansar et al.27 This is in line with previously published cytotoxicity data on
# (§16) GI = growth inhibition; TGI = total growth inhibition; LC = lethal concentration
# HepG2 cells = experiment: Cell proliferation assay (HepG2 cells); conditions: HepG2 cells
# Procedure: as §13, §14, §15, §16
# DNA gyrase = conditions: read-out: half maximum inhibitory concentration (IC50); cited from earlier work
# [3] = E. coli DSM 1116, read-out: MIC
Compound,MIC (E. coli DSM 1116; [3]) [µg/mL],MIC (S. Typhimurium TA100) [µg/mL],MIC (B. subtilis DSM 10) [µg/mL],MIC (E. coli BW25113) [µg/mL],MIC (M. luteus DSM1790) [µg/mL],MIC (M. phlei DSM 750) [µg/mL],MIC [1] [µg/mL],E. coli gyrase inhibition (E. coli DNA gyrase),MIC (Gram-negative strains) [µg/mL],MIC (Gram-positive strains) [µg/mL],MIC (E. coli DSM 1116) [µg/mL],CC50 [2] [nM],GI50 [2] [nM],TGI (total growth inhibition) (HepG2 cells) [nM],IC50 (DNA gyrase) [nM]
"COc1c(NC(=O)c2ccc(NC(=O)c3ccc(NC(=O)[C@H](Cc4c[nH]nn4)NC(=O)c4ccc(NC(=O)/C(C)=C/c5ccc(O)cc5)cc4)cc3)cc2)ccc(C(=O)O)c1O [Compound 11, reference compound]",0.063,0.063,4,0.031,8,4,4,≈,–,–,–,–,–,–,–
COc1c(NC(=O)c2ccc(NC(=O)[C@H](Cc3c[nH]nn3)NC(=O)c3ccc(NC(=O)/C(C)=C/c4ccc(O)cc4)cc3)cc2)ccc(C(=O)Nc2ccc(C(=O)O)nc2)c1O [Compound 12],64,0.125,≥ 128,≥ 128,32,32,≥ 8,↓,> 32,> 32,–,–,–,–,–
COc1c(NC(=O)c2ccc(NC(=O)[C@H](Cc3c[nH]nn3)NC(=O)c3ccc(NC(=O)/C(C)=C/c4ccc(O)cc4)cc3)cc2)ccc(C(=O)Nc2ccc(C(=O)O)cn2)c1O [Compound 13],–,0.016,4,0.125,4,4,8,≈,0.125,4,0.125,–,–,–,–
"COc1c(NC(=O)c2ccc(NC(=O)[C@H](Cc3c[nH]nn3)NC(=O)c3ccc(NC(=O)/C(C)=C/c4ccc(O)cc4)cc3)cc2)ccc(C(=O)Nc2ccc(C(=O)O)cc2)c1O [Compound 14, reference compound]",0.25,0.016,0.5,0.125,2,1,8,≈,–,–,–,–,–,–,–
COc1c(NC(=O)c2ccc(NC(=O)[C@H](Cc3c[nH]nn3)NC(=O)c3ccc(NC(=O)/C(C)=C/c4ccc(O)cc4)cc3)cc2)ccc(C(=O)Nc2ccccc2)c1O [Compound 15],1,1,2,0.5,1,2,≥ 8,≈,–,–,–,–,–,–,–
"CN[C@@H]1C[C@H]2O[C@@](C)([C@@H]1OC)n1c3ccccc3c3c4c(c5c6ccccc6n2c5c31)C(=O)NC4 [Staurosporine, reference compound]",–,–,–,–,–,–,–,–,–,–,–,5810,5.23,< 140,–
cystobactamid,–,–,–,–,–,–,–,–,–,–,–,–,–,–,80
